In BindingDB's records for doi:10.1021/cb9000102 (Pfizer, 2009):

Target: Biotin carboxylase (Escherichia coli (strain K12), UniProt P24182)
Test: ACCase-Coupled Enzyme Assay
Details: pH 8; 23 °C
Description: To each well of the plate consisting of 50 mM Hepes (pH 8.0), 100 mM KCl, 1 mM TCEP, 5 mM MgCl2, 0.1 mg/mL BSA, 0.005% (vol/vol) Tween 20, 30 nM E. coli BC, 50 nM E. coli CT, 50 nM biotinylated E. coli BCCP, and 0.5 unit/mL E. coli purine nucleoside phosphorylase was added. […] Reaction progress was monitored by the increase in absorbance at 360 nm. […] Inhibition data were fit to the standard IC50 equation.

Structure (SMILES) | IC50 [µM]
Cc1nc2nc(N)[nH]c2c(O)c1Cc1ccccc1 [amino imidazo-pyridinone, 8] | 2.4
Cc1nc(-c2ccnc(N)n2)cs1 [amino pyrimidine, 6] | 59.3

The remaining lines, values ahead:

IC50 [µM] | Structure (SMILES)
8.2 | Nc1nccc(C(=O)c2ccccc2)n1 [amino pyrimidine, 7]
1.29 | CCCCN(Cc1ccccc1)C(=O)c1cnc(N)o1 [amino-oxazole, 2b]
0.007 | Cc1ccccc1CN(Cc1ccc2c(c1)OCCO2)C(=O)c1cnc(N)o1 [amino-oxazole, 2d]
